Activity calls are given as the source filed them. How the calls were made is not given here.
Tested on: CCRIS mutagenicity, Ames/micronucleus/aberration tests
Assay: CCRIS mutagenicity studies

`C=CC(=O)OC` was tested, and the mutagenic call (Test System: AMES SALMONELLA TYPHIMURIUM, Strain/Indicator: TA97, Metabolic Activation: HAMSTER, LIVER, S-9, AROCLOR 1254 (10%), Method: PREINCUBATION) was “inactive; negative”, the mutagenic call (Test System: AMES SALMONELLA TYPHIMURIUM, Strain/Indicator: TA97, Metabolic Activation: HAMSTER, LIVER, S-9, AROCLOR 1254 (30%), Method: PREINCUBATION) was “inactive; negative” and the mutagenic call (Test System: AMES SALMONELLA TYPHIMURIUM, Strain/Indicator: TA97, Metabolic Activation: NONE, Method: PREINCUBATION) was “inactive; negative”. The mutagenic call (Test System: AMES SALMONELLA TYPHIMURIUM, Strain/Indicator: TA97, Metabolic Activation: RAT, LIVER, S-9, AROCLOR 1254 (10 OR 30%), Method: PREINCUBATION) was “inactive; negative”, the mutagenic call (Test System: AMES SALMONELLA TYPHIMURIUM, Strain/Indicator: TA98, Metabolic Activation: HAMSTER, LIVER, S-9, AROCLOR 1254 (10%), Method: PREINCUBATION) was “inactive; negative” and the mutagenic call (Test System: AMES SALMONELLA TYPHIMURIUM, Strain/Indicator: TA98, Metabolic Activation: HAMSTER, LIVER, S-9, AROCLOR 1254 (30%), Method: PREINCUBATION) was “inactive; negative”. The mutagenic call (Test System: AMES SALMONELLA TYPHIMURIUM, Strain/Indicator: TA98, Metabolic Activation: NONE, Method: PREINCUBATION) was “inactive; negative”, the mutagenic call (Test System: AMES SALMONELLA TYPHIMURIUM, Strain/Indicator: TA98, Metabolic Activation: NONE, Method: STANDARD PLATE) was “inactive; negative” and the mutagenic call (Test System: AMES SALMONELLA TYPHIMURIUM, Strain/Indicator: TA98, Metabolic Activation: RAT, LIVER, S-9, AROCLOR 1254 (10%), Method: PREINCUBATION) was “inactive; negative”. The mutagenic call (Test System: AMES SALMONELLA TYPHIMURIUM, Strain/Indicator: TA98, Metabolic Activation: RAT, LIVER, S-9, AROCLOR 1254 (30%), Method: PREINCUBATION) was “inactive; negative”, the mutagenic call (Test System: AMES SALMONELLA TYPHIMURIUM, Strain/Indicator: TA98, Metabolic Activation: RAT, LIVER, S-9, AROCLOR 1254, Method: STANDARD PLATE) was “inactive; negative” and the mutagenic call (Test System: AMES SALMONELLA TYPHIMURIUM, Strain/Indicator: TA98, Metabolic Activation: RAT, LIVER, S-9, SODIUM PHENOBARBITAL, Method: STANDARD PLATE) was “inactive; negative”. For the same compound, the mutagenic call (Test System: AMES SALMONELLA TYPHIMURIUM, Strain/Indicator: TA100, Metabolic Activation: HAMSTER, LIVER, S-9, AROCLOR 1254 (10%), Method: PREINCUBATION) was “inactive; negative”, the mutagenic call (Test System: AMES SALMONELLA TYPHIMURIUM, Strain/Indicator: TA100, Metabolic Activation: HAMSTER, LIVER, S-9, AROCLOR 1254 (30%), Method: PREINCUBATION) was “inactive; negative” and the mutagenic call (Test System: AMES SALMONELLA TYPHIMURIUM, Strain/Indicator: TA100, Metabolic Activation: NONE, Method: PREINCUBATION) was “inactive; negative”. For the same compound, the mutagenic call (Test System: AMES SALMONELLA TYPHIMURIUM, Strain/Indicator: TA100, Metabolic Activation: NONE, Method: STANDARD PLATE) was “inactive; negative”, the mutagenic call (Test System: AMES SALMONELLA TYPHIMURIUM, Strain/Indicator: TA100, Metabolic Activation: RAT, LIVER, S-9, AROCLOR 1254 (10 OR 30%), Method: PREINCUBATION) was “inactive; negative” and the mutagenic call (Test System: AMES SALMONELLA TYPHIMURIUM, Strain/Indicator: TA100, Metabolic Activation: RAT, LIVER, S-9, AROCLOR 1254, Method: PREINCUBATION) was “inactive; negative”. The mutagenic call (Test System: AMES SALMONELLA TYPHIMURIUM, Strain/Indicator: TA100, Metabolic Activation: RAT, LIVER, S-9, AROCLOR 1254, Method: STANDARD PLATE) was “inactive; negative”, the mutagenic call (Test System: AMES SALMONELLA TYPHIMURIUM, Strain/Indicator: TA100, Metabolic Activation: RAT, LIVER, S-9, SODIUM PHENOBARBITAL, Method: STANDARD PLATE) was “inactive; negative” and the mutagenic call (Test System: AMES SALMONELLA TYPHIMURIUM, Strain/Indicator: TA1535, Metabolic Activation: HAMSTER, LIVER, S-9, AROCLOR 1254 (10%), Method: PREINCUBATION) was “inactive; negative”. For the same compound, the mutagenic call (Test System: AMES SALMONELLA TYPHIMURIUM, Strain/Indicator: TA1535, Metabolic Activation: HAMSTER, LIVER, S-9, AROCLOR 1254 (30%), Method: PREINCUBATION) was “inactive; negative”, the mutagenic call (Test System: AMES SALMONELLA TYPHIMURIUM, Strain/Indicator: TA1535, Metabolic Activation: NONE, Method: PREINCUBATION) was “inactive; negative” and the mutagenic call (Test System: AMES SALMONELLA TYPHIMURIUM, Strain/Indicator: TA1535, Metabolic Activation: NONE, Method: STANDARD PLATE) was “inactive; negative”. The mutagenic call (Test System: AMES SALMONELLA TYPHIMURIUM, Strain/Indicator: TA1535, Metabolic Activation: RAT, LIVER, S-9, AROCLOR 1254 (10%), Method: PREINCUBATION) was “inactive; negative”, the mutagenic call (Test System: AMES SALMONELLA TYPHIMURIUM, Strain/Indicator: TA1535, Metabolic Activation: RAT, LIVER, S-9, AROCLOR 1254 (30%), Method: PREINCUBATION) was “inactive; negative” and the mutagenic call (Test System: AMES SALMONELLA TYPHIMURIUM, Strain/Indicator: TA1535, Metabolic Activation: RAT, LIVER, S-9, AROCLOR 1254, Method: STANDARD PLATE) was “inactive; negative”. The mutagenic call (Test System: AMES SALMONELLA TYPHIMURIUM, Strain/Indicator: TA1535, Metabolic Activation: RAT, LIVER, S-9, SODIUM PHENOBARBITAL, Method: STANDARD PLATE) was “inactive; negative”, the mutagenic call (Test System: AMES SALMONELLA TYPHIMURIUM, Strain/Indicator: TA1537, Metabolic Activation: HAMSTER, LIVER, S-9, AROCLOR 1254 (10%), Method: PREINCUBATION) was “inactive; negative” and the mutagenic call (Test System: AMES SALMONELLA TYPHIMURIUM, Strain/Indicator: TA1537, Metabolic Activation: NONE, Method: PREINCUBATION) was “inactive; negative”. For the same compound, the mutagenic call (Test System: AMES SALMONELLA TYPHIMURIUM, Strain/Indicator: TA1537, Metabolic Activation: NONE, Method: STANDARD PLATE) was “inactive; negative”, the mutagenic call (Test System: AMES SALMONELLA TYPHIMURIUM, Strain/Indicator: TA1537, Metabolic Activation: RAT, LIVER, S-9, AROCLOR 1254 (10%), Method: PREINCUBATION) was “inactive; negative” and the mutagenic call (Test System: AMES SALMONELLA TYPHIMURIUM, Strain/Indicator: TA1537, Metabolic Activation: RAT, LIVER, S-9, AROCLOR 1254, Method: STANDARD PLATE) was “inactive; negative”. For the same compound, the mutagenic call (Test System: AMES SALMONELLA TYPHIMURIUM, Strain/Indicator: TA1537, Metabolic Activation: RAT, LIVER, S-9, SODIUM PHENOBARBITAL, Method: STANDARD PLATE) was “inactive; negative”, the mutagenic call (Test System: AMES SALMONELLA TYPHIMURIUM, Strain/Indicator: TA1538, Metabolic Activation: NONE, Method: STANDARD PLATE) was “inactive; negative” and the mutagenic call (Test System: AMES SALMONELLA TYPHIMURIUM, Strain/Indicator: TA1538, Metabolic Activation: RAT, LIVER, S-9, AROCLOR 1254, Method: STANDARD PLATE) was “inactive; negative”. For the same compound, the mutagenic call (Test System: AMES SALMONELLA TYPHIMURIUM, Strain/Indicator: TA1538, Metabolic Activation: RAT, LIVER, S-9, SODIUM PHENOBARBITAL, Method: STANDARD PLATE) was “inactive; negative”, the mutagenic call (Test System: CHINESE HAMSTER OVARY, Strain/Indicator: CHO-K1-BH4 (HGPRT)/6-THIOGUANINE, Metabolic Activation: NONE, Method: SUSPENSION/PLATE) was “active; positive” and the mutagenic call (Test System: CHINESE HAMSTER OVARY, Strain/Indicator: CHO-K1-BH4 (HGPRT), Metabolic Activation: NONE, Method: SUSPENSION/PLATE) was “active; positive”. The mutagenic call (Test System: MOUSE LYMPHOMA, Strain/Indicator: L5178Y (TK+/TK-), Metabolic Activation: RAT, LIVER, S-9, AROCLOR 1254, Method: SUSPENSION/PLATE) was “active; positive. reevaluation of results: positive”.

Reference: PubChem BioAssay AID1259407 (Chemical Carcinogenesis Research Information System (CCRIS), 2018)
